Assay results as given in ChEMBL document CHEMBL2417546, “Antitrypanosomal triterpenoid with an ε-lactone E-ring from Salvia urmiensis” (J Nat Prod, 2013).

Tests used:
[1] = test system: Trypanosoma brucei rhodesiense; test: Antitrypanosomal activity against bloodstream form of Trypanosoma brucei rhodesiense STIB 900 by Alamar Blue assay; assay type: functional, organism-based
[2] = Selectivity index, ratio of IC50 for rat L6 cells to IC50 for bloodstream form of Trypanosoma brucei rhodesiense STIB 900; assay type: toxicity, cell-based; conditions: read-out: Ratio IC50
L6 = test: Cytotoxicity against rat L6 cells by Alamar Blue assay; assay type: cell-based

In the case of `C[C@H]1[C@H](C)CC(=O)O[C@]2(C)CC[C@]3(C)C(=C[C@@H](O)[C@@H]4[C@@]5(C)[C@H](O)CC(=O)C(C)(C)[C@@H]5CC[C@]43C)[C@H]12`, the IC50 [1] is reported as 5.6 µM, the selectivity ratio [2] is reported as 33.1 and the IC50 (L6) is reported as > 185 µM.
